Target: T1, mouse DP receptors (Mus musculus, UniProt P70263)
T1 construct: expressed in transfected cells; host or cells: CHO cells (membrane preparation)
T1 sequence (P70263 1-357): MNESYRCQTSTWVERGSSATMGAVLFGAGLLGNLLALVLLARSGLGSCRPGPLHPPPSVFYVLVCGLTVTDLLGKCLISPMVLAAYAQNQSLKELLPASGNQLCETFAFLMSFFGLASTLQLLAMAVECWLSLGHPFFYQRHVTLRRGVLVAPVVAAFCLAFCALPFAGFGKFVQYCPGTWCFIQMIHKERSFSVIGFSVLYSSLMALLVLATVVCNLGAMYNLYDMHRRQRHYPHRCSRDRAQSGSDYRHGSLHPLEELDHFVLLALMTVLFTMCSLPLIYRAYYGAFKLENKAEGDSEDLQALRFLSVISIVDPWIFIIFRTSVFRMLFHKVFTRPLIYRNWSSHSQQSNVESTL
Test: Receptor binding test using prostanoid DP receptor-expressing cells (3H-PGD2 binding inhibition)
Conditions: membrane of CHO cells expressing mouse DP receptors; 3H-PGD2 2.5 nmol/L; Ki=IC50/(1+([L]*/Kd))
Experimental: (i) Receptor Binding Test Using Prostanoid DP Receptor-Expressing Cells
CHO cells expressing mouse DP receptors were prepared according to the method of Hirata et al. (Proc. Natl. Acad. Sci., 91, 11192–11196 (1994)) and used as a membrane standard.
A reaction solution (200 μL) containing the prepared membrane standard (30–166 μg) and ^3H-PGD2 was incubated at room temperature for 20 minutes. The reaction was stopped with an ice-cold buffer (1 mL) and the binding ^3H-PGD2 was trapped in on a glass filter by immediate aspiration-filtration under a reduced pressure, and its binding radioactivity was measured using a liquid scintillation counter.
Kd value and Bmax value were obtained from Scatchard plots (Ann. N. Y. Acad. Sci., 51, 660 (1949)]. Non-specific binding was obtained as the binding radioactivity in the presence of unlabeled PGD2 at an excess amount (10 μmol/L). 3H-PGD2 binding inhibition by the compound of the present invention was measured by adding ^3H-PGD2 (2.5 nmol/L) and the compound of the present invention as various concentrations. Also, the following buffers were used for the reactions.
The dissociation constant (Ki) (μmol/L) of each compound was obtained by the following equation. Ki=IC50/(1+([L]*/Kd)) • [L*]: Concentration of radioligand

Ki: 31 nM
SMILES: Cc1cc2c(CC(=O)O)cccc2n1C(=O)c1ccc(OC[C@H]2Cc3ccccc3O2)cc1 [2(16), 1-(4-((2R)-2,3-dihydrobenzofuran-2-ylmethoxy)benzoyl)-2-methyl-1H-indol-4-ylacetic acid]

Reference: US7153852B2, “Indole compounds, process for producing the same and drugs containing the same as the active ingredient” (Ono Pharmaceutical Co., Ltd., priority 2001, dated 2006)
